The nature of this experiment: CD69 Whole Blood Assay (CD69 Hu Blood FACS). The class given is cell-based, human. The note with it: Lymphocyte; human whole blood, anti-IgM activated B lymphocytes, FACS; IC70; Table 2 (unit inferred); read-out: CD69 Hu Blood FACS (IC70). An outline of the steps: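 Human whole blood stimulated by crosslinking surface IgM with goat F(ab′)2 anti-human IgM; inhibition of CD69 expression on B lymphocytes measured by flow cytometry.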
In the case of `C[C@H]1CN(C2COC2)CCN1c1ccc(Nc2cc(-c3ccnc(N4CCc5c(c(F)c6n5CCCC6)C4=O)c3CO)cn(C)c2=O)nc1` [Example 237, 10-fluoro-2-[3-(hydroxymethyl)-4-[1-methyl-5-[[5-[(2S)-2-methyl-4-(oxetan-3-yl)piperazin-1-yl]-2-pyridyl]amino]-6-oxo-3-pyridyl]-2-pyridyl]-3,4,6,7,8,9-hexahydropyrido[3,4-b]indolizin-1-one], the concentration for an effect of 70% (IC70) (usually the concentration needed for an effect of 70%) came to 46.1 nM.
In the case of `CN1CC(c2ccc(Nc3cc(-c4ccnc(N5CCn6c(cc7c6CCCC7)C5=O)c4CO)cn(C)c3=O)nc2)C1` [Example 239, 2-[3-(hydroxymethyl)-4-[1-methyl-5-[[5-(1-methylazetidin-3-yl)-2-pyridyl]amino]-6-oxo-3-pyridyl]-2-pyridyl]-3,4,6,7,8,9-hexahydropyrazino[1,2-a]indol-1-one], the IC70 turned out to be 153 nM.
As for `CN1CC(c2ccc(Nc3cc(-c4ccnc(N5CCn6c(cc7c6CC(C)(C)C7)C5=O)c4CO)cn(C)c3=O)nc2)C1` [Example 240, 3-[3-(hydroxymethyl)-4-[1-methyl-5-[[5-(1-methylazetidin-3-yl)-2-pyridyl]amino]-6-oxo-3-pyridyl]-2-pyridyl]-7,7-dimethyl-1,2,6,8-tetrahydrocyclopenta[3,4]pyrrolo[3,5-b]pyrazin-4-one], the IC70 is 22.9 nM.
Regarding `CN1CCn2nc(Nc3cc(-c4ccnc(N5CCc6c(c(F)c7n6CCCC7)C5=O)c4CO)cn(C)c3=O)cc2C1` [Example 241, 10-fluoro-2-[3-(hydroxymethyl)-4-[1-methyl-5-[(5-methyl-6,7-dihydro-4H-pyrazolo[1,5-a]pyrazin-2-yl)amino]-6-oxo-3-pyridyl]-2-pyridyl]-3,4,6,7,8,9-hexahydropyrido[3,4-b]indolizin-1-one], the IC70 was determined as 190 nM.
As for `Cc1cc(Nc2cc(-c3ccnc(N4CCc5c(cc6n5CCCC6)C4=O)c3CO)cn(C)c2=O)nn1C` [Example 242, 2-[4-[5-[(1,5-dimethylpyrazol-3-yl)amino]-1-methyl-6-oxo-3-pyridyl]-3-(hydroxymethyl)-2-pyridyl]-3,4,6,7,8,9-hexahydropyrido[3,4-b]indolizin-1-one], the figure is 1200 nM.
In the case of `Cn1cc(-c2ccnc(N3CCn4c(cc5c4CCCC5)C3=O)c2CO)cc(Nc2cn(C3CCN(C4COC4)CC3)cn2)c1=O` [Example 243, 2-[3-(hydroxymethyl)-4-[1-methyl-5-[[1-[1-(oxetan-3-yl)-4-piperidyl]imidazol-4-yl]amino]-6-oxo-3-pyridyl]-2-pyridyl]-3,4,6,7,8,9-hexahydropyrazino[1,2-a]indol-1-one] it was 2800 nM; in that of `CN1CC(c2ccc(Nc3cc(-c4ccnc(N5CCc6c(cc7n6CCCC7)C5=O)c4CO)cn(C)c3=O)nc2)C1` [Example 244, 2-[3-(hydroxymethyl)-4-[1-methyl-5-[[5-(1-methylazetidin-3-yl)-2-pyridyl]amino]-6-oxo-3-pyridyl]-2-pyridyl]-3,4,6,7,8,9-hexahydropyrido[3,4-b]indolizin-1-one], 138 nM.
As for `C[C@H]1CN(C2COC2)CCN1c1ccc(Nc2cc(-c3ccnc(-n4ccc5c(cc6n5CCCC6)c4=O)c3CO)cn(C)c2=O)nc1` [Example 245, (S)-2-(3-(Hydroxymethyl)-4-(1-methyl-5-(5-(2-methyl-4-(oxetan-3-yl)piperazin-1-yl)pyridin-2-ylamino)-6-oxo-1,6-dihydropyridin-3-yl)pyridin-2-yl)-6,7,8,9-tetrahydropyrido[3,4-b]indolizin-1(2H)-one], the figure is 65 nM; as for `Cc1cc(Nc2cc(-c3ccnc(-n4ccc5c(cc6n5CCCC6)c4=O)c3CO)cn(C)c2=O)nn1C` [Example 246, 2-[4-[5-[(1,5-dimethylpyrazol-3-yl)amino]-1-methyl-6-oxo-3-pyridyl]-3-(hydroxymethyl)-2-pyridyl]-6,7,8,9-tetrahydropyrido[3,4-b]indolizin-1-one], 1700 nM; as for `CC(=O)N1CCn2nc(Nc3cc(-c4ccnc(-n5ncc6c7c(sc6c5=O)CCCC7)c4CO)cn(C)c3=O)cc2C1` [Example 247, 3-[4-[5-[(5-acetyl-6,7-dihydro-4H-pyrazolo[1,5-a]pyrazin-2-yl)amino]-1-methyl-6-oxo-3-pyridyl]-3-(hydroxymethyl)-2-pyridyl]-6,7,8,9-tetrahydrobenzothiopheno[2,3-d]pyridazin-4-one], 145 nM.
As to `C[C@@H]1COCCN1C(=O)c1ccc(Nc2cc(-c3ccnc(N4CCn5c(cc6c5CC(C)(C)C6)C4=O)c3CO)nn(C)c2=O)nc1` [Example 248, 3-[3-(hydroxymethyl)-4-[1-methyl-5-[[5-[(3R)-3-methylmorpholine-4-carbonyl]-2-pyridyl]amino]-6-oxo-pyridazin-3-yl]-2-pyridyl]-7,7-dimethyl-1,2,6,8-tetrahydrocyclopenta[3,4]pyrrolo[3,5-b]pyrazin-4-one], the IC70 was 70.3 nM.
As for `C[C@@H]1COCCN1C(=O)c1ccc(Nc2cc(-c3ccnc(N4CCn5c(cc6c5CC(C)(C)C6)C4=O)c3CO)cn(C)c2=O)nc1` [Example 249, 3-[3-(hydroxymethyl)-4-[1-methyl-5-[[5-[(3R)-3-methylmorpholine-4-carbonyl]-2-pyridyl]amino]-6-oxo-3-pyridyl]-2-pyridyl]-7,7-dimethyl-1,2,6,8-tetrahydrocyclopenta[3,4]pyrrolo[3,5-b]pyrazin-4-one], the figure is 17.7 nM; as for `CC1Cn2nc(Nc3cc(-c4ccnc(N5CCn6c(cc7c6CCCC7)C5=O)c4CO)cn(C)c3=O)cc2CN1C` (stereo not shown) [Example 250, 2-[4-[5-[(5,6-dimethyl-6,7-dihydro-4H-pyrazolo[1,5-a]pyrazin-2-yl)amino]-1-methyl-6-oxo-3-pyridyl]-3-(hydroxymethyl)-2-pyridyl]-3,4,6,7,8,9-hexahydropyrazino[1,2-a]indol-1-one], 171 nM; as for `CCn1nc(Nc2cc(-c3ccnc(N4CCn5c(cc6c5CC(C)(C)C6)C4=O)c3CO)cn(C)c2=O)cc1C` [Example 252, 3-[4-[5-[(1-ethyl-5-methyl-pyrazol-3-yl)amino]-1-methyl-6-oxo-3-pyridyl]-3-(hydroxymethyl)-2-pyridyl]-7,7-dimethyl-1,2,6,8-tetrahydrocyclopenta[3,4]pyrrolo[3,5-b]pyrazin-4-one], 252 nM.
For the compound `C[C@H]1CN(C2COC2)CCN1c1ccc(Nc2cc(-c3ccnc(N4CCn5c(cc6c5CC(C)(C)C6)C4=O)c3CO)n[nH]c2=O)nc1` [Example 253, 3-[3-(hydroxymethyl)-4-[5-[[5-[(2S)-2-methyl-4-(oxetan-3-yl)piperazin-1-yl]-2-pyridyl]amino]-6-oxo-1H-pyridazin-3-yl]-2-pyridyl]-7,7-dimethyl-1,2,6,8-tetrahydrocyclopenta[3,4]pyrrolo[3,5-b]pyrazin-4-one], the IC70 turned out to be 16.4 nM.
As for `CC(=O)N1CCn2nc(Nc3cc(-c4ccnc(N5CCc6c(sc7c6CC(C)(C)C7)C5=O)c4CO)cn(C)c3=O)cc2C1` [Example 254, 3-[4-[5-[(5-acetyl-6,7-dihydro-4H-pyrazolo[1,5-a]pyrazin-2-yl)amino]-1-methyl-6-oxo-3-pyridyl]-3-(hydroxymethyl)-2-pyridyl]-7,7-dimethyl-1,2,6,8-tetrahydrocyclopenta[3,4]thieno[1,3-c]pyridin-4-one], the figure is 37.3 nM; as for `CC(=O)N1CCn2nc(Nc3cc(-c4ccnc(N5CCn6c7c(c(F)c6C5=O)CCCC7)c4CO)cn(C)c3=O)cc2C1` [Example 255, 2-[4-[5-[(5-acetyl-6,7-dihydro-4H-pyrazolo[1,5-a]pyrazin-2-yl)amino]-1-methyl-6-oxo-3-pyridyl]-3-(hydroxymethyl)-2-pyridyl]-10-fluoro-3,4,6,7,8,9-hexahydropyrazino[1,2-a]indol-1-one], 94 nM.
In the case of `C[C@H]1COCCN1C(=O)c1ccc(Nc2cc(-c3ccnc(N4CCn5c(cc6c5CC(C)(C)C6)C4=O)c3CO)nn(C)c2=O)nc1` [Example 256, 3-[3-(hydroxymethyl)-4-[1-methyl-5-[[5-[(3 S)-3-methylmorpholine-4-carbonyl]-2-pyridyl]amino]-6-oxo-pyridazin-3-yl]-2-pyridyl]-7,7-dimethyl-1,2,6,8-tetrahydrocyclopenta[3,4]pyrrolo[3,5-b]pyrazin-4-one], the IC70 was 80 nM.
With `C[C@H]1COCCN1C(=O)c1ccc(Nc2cc(-c3ccnc(N4CCn5c(cc6c5CC(C)(C)C6)C4=O)c3CO)cn(C)c2=O)nc1` [Example 257, 3-[3-(hydroxymethyl)-4-[1-methyl-5-[[5-[(3 S)-3-methylmorpholine-4-carbonyl]-2-pyridyl]amino]-6-oxo-3-pyridyl]-2-pyridyl]-7,7-dimethyl-1,2,6,8-tetrahydrocyclopenta[3,4]pyrrolo[3,5-b]pyrazin-4-one], the IC70 amounted to 21.6 nM.
As for `Cn1nc(-c2ccnc(-n3ncc4c5c(sc4c3=O)CCCC5)c2CO)cc(Nc2ccc(C(=O)N3CCOCC3)cn2)c1=O` [Example 258, 3-[3-(hydroxymethyl)-4-[1-methyl-5-[[5-(morpholine-4-carbonyl)-2-pyridyl]amino]-6-oxo-pyridazin-3-yl]-2-pyridyl]-6,7,8,9-tetrahydrobenzothiopheno[2,3-d]pyridazin-4-one], the figure is 646 nM; as for `Cn1nc(-c2ccnc(N3CCc4c(sc5c4CC(C)(C)C5)C3=O)c2CO)cc(Nc2ccc(C(=O)N3CCOCC3)cn2)c1=O` [Example 259, 3-[3-(hydroxymethyl)-4-[1-methyl-5-[[5-(morpholine-4-carbonyl)-2-pyridyl]amino]-6-oxo-pyridazin-3-yl]-2-pyridyl]-7,7-dimethyl-1,2,6,8-tetrahydrocyclopenta[3,4]thieno[1,3-c]pyridin-4-one], 301 nM.
As for `Cc1cc(Nc2cc(-c3ccnc(N4CCn5c(cc6c5CC(C)(C)C6)C4=O)c3CO)cn(C)c2=O)n[nH]1` [Example 260, 3-[3-(hydroxymethyl)-4-[1-methyl-5-[(5-methyl-1H-pyrazol-3-yl)amino]-6-oxo-3-pyridyl]-2-pyridyl]-7,7-dimethyl-1,2,6,8-tetrahydrocyclopenta[3,4]pyrrolo[3,5-b]pyrazin-4-one], the figure is 60.6 nM.

These data come from patent US10045983B2, “Heteroaryl pyridone and aza-pyrodine compounds” (Genentech, Inc., priority 2011, dated 2018).
